Experimental data taken from patent US20090069300A1, “ISOQUINOLINYL AND ISOINDOLINYL DERIVATIVES AS HISTAMINE-3 ANTAGONISTS” (Wyeth, priority 2007, published 2009).
Structures can show the parent of a compound that is named as a salt.

| Structure (SMILES) | melting point [°C] |
| --- | --- |
| O=C1c2ccc(-c3cc(F)cc(F)c3)cc2CCN1CCN1CCCC1 (as salt: hydrochloride) [Example 10, 6-(3,5-difluorophenyl)-2-(2-pyrrolidin-1-ylethyl)-3,4-dihydroisoquinolin-1(2H)-one] | 196 to 198 |
| C[C@@H]1CCCN1C(=O)c1ccc(-c2ccc3c(c2)CCN(CCN2CCCC2)C3=O)cc1 (as salt: hydrochloride) [Example 82, 6-(4-{[(2R)-2-methylpyrrolidin-1-yl]carbonyl}phenyl)-2-(2-pyrrolidin-1-ylethyl)-3,4-dihydroisoquinolin-1(2H)-one] | 170 to 171 |
| C[C@@H]1CCCN1CCN1CCc2cc(-c3ccc(C(=O)NC4CCCC4)cc3)ccc2C1=O (as salt: hydrochloride) [Example 80, N-cyclopentyl-4-(2-{2-[(2R)-2-methylpyrrolidin-1-yl]ethyl}-1-oxo-1,2,3,4-tetrahydroisoquinolin-6-yl)benzamide] | 260 to 262 |
| C[C@H]1CCCN1C(=O)c1ccc(-c2ccc3c(c2)CCN(CCN2CCCC2)C3=O)cc1 (as salt: hydrochloride) [Example 81, 6-(4-{[(2S)-2-methylpyrrolidin-1-yl]carbonyl}phenyl)-2-(2-pyrrolidin-1-ylethyl)-3,4-dihydroisoquinolin-1(2H)-one] | 171 to 172 |
| N#Cc1ccc(Oc2ccc3c(c2)CCN(CCN2CCCC2)C3=O)cc1 (as salt: hydrochloride) [Example 50, 4-{[1-oxo-2-(2-pyrrolidin-1-ylethyl)-1,2,3,4-tetrahydroisoquinolin-6-yl]oxy}benzonitrile] | 146 to 147 |
| CC(C)NC(=O)c1ccc(-c2ccc3c(c2)C(=O)N(CCN2CCC[C@H]2C)CC3)cc1 (as salt: hydrochloride) [Example 85, N-isopropyl-4-(2-{2-[(2R)-2-methylpyrrolidin-1-yl]ethyl}-1-oxo-1,2,3,4-tetrahydroiso-quinolin-7-yl)benzamide] | 248 to 250 |
| O=C1c2ccc(-c3ccccc3F)cc2CCN1CCN1CCCC1 (as salt: hydrochloride) [Example 12, 6-(2-fluorophenyl)-2-(2-pyrrolidin-1-ylethyl)-3,4-dihydroisoquinolin-1(2H)-one] | 211 to 213 |
| C[C@@H]1CCCN1CCN1CCc2cc(-c3ccc(C(=O)NC4CC4)cc3)ccc2C1=O (as salt: hydrochloride) [Example 76, N-cyclopropyl-4-(2-{2-[(2R)-2-methylpyrrolidin-1-yl]ethyl}-1-oxo-1,2,3,4-tetrahydroisoquinolin-6-yl)benzamide] | 255 to 257 |
| C[C@@H]1CCCN1CCN1Cc2ccc(-c3ccc(F)cc3)cc2C1 (as salt: hydrochloride) | 250 to 251 |
| COc1ccc2c(c1)CCN(CCN1CCCC1)C2=O (as salt: hydrochloride) | 201 to 202 |
| NC(=O)c1ccc(-c2ccc3c(c2)CCN(CCN2CCCC2)C3=O)cc1 (as salt: hydrochloride) [Example 67, 4-[1-oxo-2-(2-pyrrolidin-1-ylethyl)-1,2,3,4-tetrahydroisoquinolin-6-yl]benzamide] | 268 to 270 |
| COC(=O)c1ccc(Oc2ccc3c(c2)CCN(CCN2CCCC2)C3=O)cc1 (as salt: hydrochloride) | 215 to 216 |
| CC(C)NC(=O)c1ccc(-c2ccc3c(c2)CCN(CCN2CCC[C@H]2C)C3=O)cc1 (as salt: hydrochloride) [Example 77, N-isopropyl-4-(2-{2-[(2R)-2-methylpyrrolidin-1-yl]ethyl}-1-oxo-1,2,3,4-tetrahydroisoquinolin-6-yl)benzamide] | 188 to 189 |
| C[C@@H]1CCCN1CCN1CCc2c(cccc2-c2cccc(C#N)c2)C1=O (as salt: hydrochloride) [Example 27, 3-(2-{2-[(2R)-2-methylpyrrolidin-1-yl]ethyl}-1-oxo-1,2,3,4-tetrahydroisoquinolin-5-yl)benzonitrile] | 203 to 205 |
| C[C@@H]1CCCN1CCN1CCc2cc(-c3ccc(C(=O)NC4CCC4)cc3)ccc2C1=O (as salt: hydrochloride) [Example 74, N-cyclobutyl-4-(2-{2-[(2R)-2-methylpyrrolidin-1-yl]ethyl}-1-oxo-1,2,3,4-tetrahydroisoquinolin-6-yl)benzamide] | 210 to 211 |
| CC(C)NC(=O)c1ccc(-c2ccc3c(c2)CCN(CCN2CCCC2)C3=O)cc1 (as salt: hydrochloride) [Example 61, N-isopropyl-4-[1-oxo-2-(2-pyrrolidin-1-ylethyl)-1,2,3,4-tetrahydroisoquinolin-6-yl]benzamide] | 257 to 259 |
| N#Cc1ccc2c(ccn2-c2ccc3c(c2)CCN(CCN2CCCC2)C3=O)c1 (as salt: hydrochloride) [Example 35, 1-[1-oxo-2-(2-pyrrolidin-1-ylethyl)-1,2,3,4-tetrahydroisoquinolin-6-yl]-1H-indole-5-carbonitrile Hydrochloride] | 215 to 217 |
| CNC(=O)c1ccc(-c2ccc3c(c2)C(=O)N(CCN2CCC[C@H]2C)CC3)cc1 (as salt: hydrochloride) [Example 83, N-methyl-4-(2-{2-[(2R)-2-methylpyrrolidin-1-yl]ethyl}-1-oxo-1,2,3,4-tetrahydroiso-quinolin-7-yl)benzamide] | 262 to 263 |
| O=C1c2ccc(-c3ccc(F)c(F)c3)cc2CCN1CCN1CCCC1 (as salt: hydrochloride) [Example 17, 6-(3,4-difluorophenyl)-2-(2-pyrrolidin-1-ylethyl)-3,4-dihydroisoquinolin-1(2H)-one] | 179 to 180 |
| O=C(NCCOc1ccccc1)c1ccc(-c2ccc3c(c2)CCN(CCN2CCCC2)C3=O)cc1 (as salt: hydrochloride) [Example 71, 4-[1-oxo-2-(2-pyrrolidin-1-ylethyl)-1,2,3,4-tetrahydroisoquinolin-6-yl]-N-(2-phenoxyethyl)-benzamide] | 123 to 130 |
| O=C(NC1CCC1)c1ccc(-c2ccc3c(c2)CCN(CCN2CCCC2)C3=O)cc1 (as salt: hydrochloride) [Example 63, N-cyclobutyl-4-[1-oxo-2-(2-pyrrolidin-1-ylethyl)-1,2,3,4-tetrahydroisoquinolin-6-yl]benzamide] | 255 to 258 |
| O=C1c2ccc(-c3ccc4c(c3)OCO4)cc2CCN1CCN1CCCC1 (as salt: hydrochloride) [Example 21, 6-(1,3-benzodioxol-5-yl)-2-(2-pyrrolidin-1-ylethyl)-3,4-dihydroisoquinolin-1(2H)-one] | 249 to 251 |
| N#Cc1ccc(-c2ccc3c(c2)CCN(CCCN2CCCCC2)C3=O)cc1 (as salt: hydrochloride) [Example 45, 4-[1-oxo-2-(3-piperidin-1-ylpropyl)-1,2,3,4-tetrahydroisoquinolin-6-yl]benzonitrile hydrochloride] | 249 to 250 |

Next, values leading:

| melting point [°C] | Structure (SMILES) |
| --- | --- |
| 145 to 146 | C[C@@H]1CCCN1CCN1CCc2cc(C(=O)NC3Cc4ccccc4C3)ccc2C1=O (as salt: hydrochloride) [Example 148, N-(2,3-dihydro-1H-inden-2-yl)-2-{2-[(2R)-2-methylpyrrolidin-1-yl]ethyl}-1-oxo-1,2,3,4-tetrahydroisoquinoline-6-carboxamide] |
| 188 to 190 | CNC(=O)c1ccc(-c2ccc3c(c2)CCN(CCN2CCCC2)C3=O)c(F)c1 (as salt: hydrochloride) [Example 139, 3-fluoro-N-methyl-4-[1-oxo-2-(2-pyrrolidin-1-ylethyl)-1,2,3,4-tetrahydroisoquinolin-6-yl]benzaimde] |
| 280 to 281 | CNC(=O)c1ccc(-c2ccc3c(c2)CCN(CCN2CCCC2)C3)cc1 (as salt: hydrochloride) [Example 181, N-methyl-4-[2-(2-pyrrolidin-1-ylethyl)-1,2,3,4-tetrahydroisoquinolin-6-yl]benzamide] |
| 182 to 184 | C[C@@H]1CCCN1CCN1CCc2cc(N3CCCCCC3)ccc2C1=O (as salt: hydrochloride) [Example 166, (R)-6-(azepan-1-yl)-2-(2-(2-methylpyrrolidin-1-yl)ethyl)-3,4-dihydroisoquinolin-1(2H)-one] |
| 229 to 231 | O=C1c2ccc(N3CCCCC3)cc2CCN1CCN1CCCCCC1 (as salt: hydrochloride) [Example 164, 2-(2-(azepan-1-yl)ethyl)-6-(piperidin-1-yl)-3,4-dihydroisoquinolin-1(2H)-one] |
| 109 to 110 | C[C@@H]1CCCN1CCN1CCc2cc(C(=O)N3Cc4ccccc4C3)ccc2C1=O (as salt: hydrochloride) [Example 152, 6-(1,3-dihydro-2H-isoindol-2-ylcarbonyl)-2-{2-[(2R)-2-methylpyrrolidin-1-yl]ethyl}-3,4-dihydroisoquinolin-1(2H)-one] |
| 284 to 285 | O=C(Nc1nccs1)c1ccc(-c2ccc3c(c2)CCN(CCN2CCCC2)C3=O)cc1 (as salt: hydrochloride) [Example 130, 4-[1-oxo-2-(2-pyrrolidin-1-ylethyl)-1,2,3,4-tetrahydroisoquinolin-6-yl]-N-1,3-thiazol-2-ylbenzamide] |
| 266 to 268 | CCNC(=O)c1ccc(-c2ccc3c(c2)CCN(CCN2CCCC2)C3)cc1 (as salt: hydrochloride) [Example 182, N-ethyl-4-[2-(2-pyrrolidin-1-ylethyl)-1,2,3,4-tetrahydroisoquinolin-6-yl]benzamide] |
| 228 to 230 | CNC(=O)c1ccc(Oc2ccc3c(c2)CCN(CCN2CCCC2)C3=O)nc1 (as salt: hydrochloride) [Example 101, N-Methyl-6-(1-oxo-2-(2-(pyrrolidin-1-yl)ethyl)-1,2,3,4-tetrahydro-isoquinolin-6-yloxy)nicotinamide hydrochloride] |
| 220 to 221 | O=C(c1ccc2c(c1)CCN(CCN1CCCC1)C2=O)N1Cc2ccccc2C1 (as salt: hydrochloride) [Example 156, 6-(isoindoline-2-carbonyl)-2-(2-(pyrrolidin-1-yl)ethyl)-3,4-dihydroisoquinolin-1(2H)-one] |
| 225 to 226 | O=C(c1ccc(-c2ccc3c(c2)CCN(CCN2CCCC2)C3=O)c(F)c1)N1CCCC1 (as salt: hydrochloride) [Example 138, 6-[2-fluoro-4-(pyrrolidin-1-ylcarbonyl)phenyl]-2-(2-pyrrolidin-1-ylethyl)-3,4-dihydroisoquinolin-1(2H)-one] |
